Measurements as given in publication PMC12332667, “Role of Structural Modifications in Peptidomimetic Compounds as Potential Antimicrobial Agents against Staphylococcus aureus and Streptococcus pyogenes: Balancing Bioavailability, Safety, and Antimicrobial Activity” (ACS Omega, 2025).
≈ marks a conversion by molar mass, not a printed value.

Columns and labels:
S. aureus ATCC 43300 = assay: MIC/MBC broth microdilution, S. aureus; type: cell-based, Staphylococcus aureus; settings: for MBC / MIC: S. aureus
S. pyogenes ATCC 19615 = assay: MIC/MBC broth microdilution, S. pyogenes; type: cell-based, Streptococcus pyogenes; settings: S. pyogenes
Procedure: (§1) S. aureus (ATCC 29213),S. pyogenes (ATCC 19615),Streptococcus agalactiae (ATCC 27956),Escherichia coli (ATCC 25922),Proteus vulgaris (ATCC 6896),K. pneumoniae (ATCC 700603) andP. aeruginosa (ATCC 10145) reference strains, as well asStaphylococcus cohnii, Enterococcus faecalis, Staphylococcus schleiferi, Staphylococcus intermedius and Streptococcus mutans clinical isolates, were used to test the antibacterial activity of the peptidomimetics. Bacteria were aerobically cultured for 18 h at 37 °C in plates with sterilized brain heart infusion (BHI) broth (Sigma-Aldrich, USA) media mixed with bacteriological agar (Sigma-Aldrich, USA) using the streak plate method. After 18 h, BHI broth was inoculated to 0.5 on the McFarland scale and diluted to approximately 10^5 CFU/mL. To achieve a final stock concentration of 1024 μg/mL, the peptidomimetics were dissolved in sterile water, and 5–10% of absolute ethanol or dimethyl sulfoxide (DMSO) was added. The antibacterial activities were determined by using the standard broth microdilution method of the National Committee for Clinical Laboratory Standards. The process involved adding serially diluted peptidomimetics to consecutive wells of a 96-well microtiter plate (Brand, Germany) holding media with microorganisms. The inoculated plates treated with peptides were then placed in an incubator at 37 °C for 18 h. The MIC value was determined as the lowest concentration of peptidomimetic at which there was no obvious growth (equal or more than 90% of the untreated sample). […] The lowest concentration yielding growth in no more than 3 colonies, corresponding to at least a 99.9% kill rate, was taken as MBC. Each biological replicate included control wells with the addition of water, DMSO, and ethanol as respective solvent controls. All experiments were conducted with consistent adherence to growth and sterility controls and were performed at least in technical triplicate with three biological repeats.

S. cohnii c.i. = assay: MIC/MBC broth microdilution, S. cohnii; type: cell-based, Staphylococcus cohnii
Procedure: as §1

E. faecalis c.i. = assay: MIC/MBC broth microdilution, E. faecalis; type: cell-based, Enterococcus faecalis
Procedure: as §1

S. schleiferi c.i. = assay: MIC/MBC broth microdilution, S. schleiferi; type: cell-based, Staphylococcus schleiferi
Procedure: as §1

S. agalactiae ATCC 27956 = assay: MIC/MBC broth microdilution, S. agalactiae; type: cell-based, Streptococcus agalactiae; settings: S. agalactiae
Procedure: as §1

S. intemrdius c.i. = assay: MIC/MBC broth microdilution, S. intermedius; type: cell-based, Staphylococcus intermedius
Procedure: as §1

S. mutans c.i. = assay: MIC/MBC broth microdilution, S. mutans; type: cell-based, Streptococcus mutans
Procedure: as §1

E. coli ATCC 25922 = assay: MIC/MBC broth microdilution, E. coli; type: cell-based, Escherichia coli
Procedure: as §1

P. vulgaris ATCC 6896 = assay: MIC/MBC broth microdilution, P. vulgaris; type: cell-based, Proteus vulgaris
Procedure: as §1

[1] = tested on: K. pneumoniae ATCC 700603; assay: MIC/MBC broth microdilution, K. pneumoniae; type: cell-based
Procedure: as §1

P. aeruginosa ATCC 10145 = assay: MIC/MBC broth microdilution, P. aeruginosa; type: cell-based
Procedure: as §1

[2] = tested on: immortalized human keratinocytes (HaCaT); assay: LDH cytotoxicity test, keratinocytes; type: cell-based; settings: 48 h
Procedure: (§2) In our study, we used two distinct cell types: immortalized human HaCaT keratinocytes (DKFZ, Heidelberg, Germany) and a human dermal fibroblast cell line (46BR.1N). […] Cultures were maintained in a humidified atmosphere with 5% CO2 at 37 °C in 25 cm^2 culture flasks with the medium replenished every 2 days. The condition of the cells was monitored using optical microscopy.
(§3) Cell death in immortalized human keratinocytes (HaCaT) and fibroblasts (46BR.1N) was measured by quantifying the lactate dehydrogenase (LDH) activity using a commercial kit (Roche, Switzerland). Cells were seeded in 96-well plates at a density of 5000 cells per well in DMEM high glucose medium supplemented with 10% FBS. After 24 h of incubation, the medium was replaced with serum-free medium containing various concentrations of peptidomimetics (50, 100, and 150 μg/mL). After 48 h, supernatants were collected for LDH analysis. Plate readings were taken spectrophotometrically using a 450 nm wavelength. Cell death measurements were normalized to an untreated control (0%), with 1% Triton X-100 detergent used as a positive control to induce maximum LDH release, indicating maximal cytotoxicity. Statistical significance was determined with a Mann–Whitney U test with a statistical significance p ≤ 0.05. Analysis was performed with Statistica software (Krakow, Poland) and graphs were prepared in GraphPad Prism (Boston, USA).

fibroblasts (46BR.1N) = assay: LDH cytotoxicity test, fibroblasts; type: cell-based; settings: 48 h
Procedure: as §2, §3

[3] = tested on: immortalized human HaCaT keratinocytes; assay: XTT cell proliferation assay, keratinocytes; type: cell-based
Procedure: (§4) In our study, we used two distinct cell types: immortalized human HaCaT keratinocytes (DKFZ, Heidelberg, Germany) and a human dermal fibroblast cell line (46BR.1N). […] Cultures were maintained in a humidified atmosphere with 5% CO2 at 37 °C in 25 cm^2 culture flasks with the medium replenished every 2 days. The condition of the cells was monitored using optical microscopy. […] After 24 h of incubation, the medium was replaced with serum-free HG-DMEM containing appropriate concentrations of peptidomimetics. All solutions used in the experiments were prepared with double-distilled water or with the addition of ethanol under sterile conditions to ensure compatibility with the conditions of the bacteriological assay. For 72 h of incubation, half of the medium was replaced with fresh medium after 48 h, and cells were stimulated with peptides for a second time. The XTT cell proliferation assay was then performed according to the manufacturer’s instructions (Roche, Switzerland). Cells were treated with the peptides for either 48 or 72 h, followed by the addition of XTT reagent, and the plates were then incubated at 37 °C in a 5% CO2 environment for 4 h. Plate readings were taken using a standard plate reader at a wavelength of 490 nm (OD = 490 nm). […] Statistical significance was determined with a Mann–Whitney U test with statistical significance p ≤ 0.05. Analysis was performed with Statistica software, and graphs were prepared in GraphPad Prism.

[4] = tested on: human dermal fibroblast cell line (46BR.1N); assay: XTT cell proliferation assay, fibroblasts; type: cell-based
Procedure: as §4

[5] = XTT, 48 and 72 h, 0.01–150 μg/mL
[6] = up to 150 μg/mL, A-193 and A-179 after 48 h

Compound: CC(C)C[C@H](NC(=O)[C@H](CCCNC(=N)N)NC(=O)OCc1ccccc1)C(=O)N[C@H](CNC(=O)C(=Cc1ccccc1)c1ccccc1)C(C)C [Compound A-164]
- MBC (S. aureus ATCC 43300; H2O): 16 µg/mL (≈ 22.5 µM)
- MIC (S. aureus ATCC 43300; H2O): 8 µg/mL (≈ 11.2 µM)
- MBC (S. aureus ATCC 43300; water additive DMSO): 16 µg/mL (≈ 22.5 µM)
- MIC (S. aureus ATCC 43300; water additive DMSO): 8 µg/mL (≈ 11.2 µM)
- MBC (S. aureus ATCC 43300; water additive EtOH): 16 µg/mL (≈ 22.5 µM)
- MIC (S. aureus ATCC 43300; water additive EtOH): 8 µg/mL (≈ 11.2 µM)
- MIC value for S. aureus (S. aureus ATCC 43300; additive not stated): 8 µg/mL
- MBC (S. pyogenes ATCC 19615; H2O): 16 µg/mL (≈ 22.5 µM)
- MIC (S. pyogenes ATCC 19615; H2O): 8 µg/mL (≈ 11.2 µM)
- MBC (S. pyogenes ATCC 19615; water additive DMSO): 16 µg/mL (≈ 22.5 µM)
- MIC (S. pyogenes ATCC 19615; water additive DMSO): 8 µg/mL (≈ 11.2 µM)
- MBC (S. pyogenes ATCC 19615; water additive EtOH): 8 µg/mL (≈ 11.2 µM)
- MIC (S. pyogenes ATCC 19615; water additive EtOH): 4 µg/mL (≈ 5.62 µM)
- MBC (S. cohnii c.i.; water additive DMSO): 32 µg/mL (≈ 44.9 µM)
- MIC (S. cohnii c.i.; water additive DMSO): 16 µg/mL (≈ 22.5 µM)
- MIC (S. cohnii c.i.; water additive EtOH): 32 µg/mL (≈ 44.9 µM)
- MIC (E. faecalis c.i.; H2O): 32 µg/mL (≈ 44.9 µM)
- MBC (E. faecalis c.i.; water additive DMSO): 32 µg/mL (≈ 44.9 µM)
- MIC (E. faecalis c.i.; water additive DMSO): 16 µg/mL (≈ 22.5 µM)
- MIC (E. faecalis c.i.; water additive EtOH): 32 µg/mL (≈ 44.9 µM)
- MBC (S. schleiferi c.i.; H2O): 16 µg/mL (≈ 22.5 µM)
- MIC (S. schleiferi c.i.; H2O): 8 µg/mL (≈ 11.2 µM)
- MBC (S. schleiferi c.i.; water additive DMSO): 32 µg/mL (≈ 44.9 µM)
- MIC (S. schleiferi c.i.; water additive DMSO): 16 µg/mL (≈ 22.5 µM)
- MBC (S. schleiferi c.i.; water additive EtOH): 8 µg/mL (≈ 11.2 µM)
- MIC (S. schleiferi c.i.; water additive EtOH): 4 µg/mL (≈ 5.62 µM)
- MBC (S. agalactiae ATCC 27956; H2O): 16 µg/mL (≈ 22.5 µM)
- MIC (S. agalactiae ATCC 27956; H2O): 8 µg/mL (≈ 11.2 µM)
- MBC (S. agalactiae ATCC 27956; water additive DMSO): 32 µg/mL (≈ 44.9 µM)
- MIC (S. agalactiae ATCC 27956; water additive DMSO): 16 µg/mL (≈ 22.5 µM)
- MBC (S. agalactiae ATCC 27956; water additive EtOH): 8 µg/mL (≈ 11.2 µM)
- MIC (S. agalactiae ATCC 27956; water additive EtOH): 4 µg/mL (≈ 5.62 µM)
- MBC (S. intemrdius c.i.; H2O): 32 µg/mL (≈ 44.9 µM)
- MIC (S. intemrdius c.i.; H2O): 16 µg/mL (≈ 22.5 µM)
- MBC (S. intemrdius c.i.; water additive DMSO): 8 µg/mL (≈ 11.2 µM)
- MIC (S. intemrdius c.i.; water additive DMSO): 4 µg/mL (≈ 5.62 µM)
- MBC (S. intemrdius c.i.; water additive EtOH): 16 µg/mL (≈ 22.5 µM)
- MIC (S. intemrdius c.i.; water additive EtOH): 8 µg/mL (≈ 11.2 µM)
- MIC (S. mutans c.i.; H2O): > 512 µg/mL
- MIC (S. mutans c.i.; water additive DMSO): > 512 µg/mL
- MIC (S. mutans c.i.; water additive EtOH): > 512 µg/mL
- MIC (E. coli ATCC 25922; H2O): > 512 µg/mL
- MIC (E. coli ATCC 25922; water additive DMSO): > 512 µg/mL
- MIC (E. coli ATCC 25922; water additive EtOH): > 512 µg/mL
- MIC (P. vulgaris ATCC 6896; H2O): > 512 µg/mL
- MIC (P. vulgaris ATCC 6896; water additive DMSO): > 512 µg/mL
- MIC (P. vulgaris ATCC 6896; water additive EtOH): > 512 µg/mL
- MIC ([1]; H2O): > 512 µg/mL
- MIC ([1]; water additive DMSO): > 512 µg/mL
- MIC ([1]; water additive EtOH): > 512 µg/mL
- MIC (P. aeruginosa ATCC 10145; H2O): > 512 µg/mL
- MIC (P. aeruginosa ATCC 10145; water additive DMSO): > 512 µg/mL
- MIC (P. aeruginosa ATCC 10145; water additive EtOH): > 512 µg/mL
- cytotoxicity (LDH), in words ([2]; 50-150 μg/mL): cytotoxic effects across all of the tested concentrations
- concentration at which cytotoxic effect starts ([2]; LDH): 50 µg/mL
- cytotoxicity (LDH), in words (fibroblasts (46BR.1N); 50-150 μg/mL): cytotoxic effects across all of the tested concentrations
- concentration at which cytotoxic effect starts (fibroblasts (46BR.1N); LDH): 50 µg/mL
- proliferation relative to control at 50 μg/mL ([3]; XTT, 50 μg/mL): 50%
- effect on proliferation, in words [3, 5]: negative impact
- antiproliferative effect (decrease vs control) [3, 6]: up to 50%
- viability ([4]; 48 h, 50, 100 and 150 μg/mL): over 20%
- proliferation relative to control at 50 μg/mL ([4]; XTT, 50 μg/mL): 50%
- effect on proliferation, in words [4, 5]: negative impact
- antiproliferative effect (decrease vs control) [4, 6]: up to 50%
